A short description of data set [1]: Weight changes and hematologic parameters in mice bearing EMT-6 carcinomas. The class given is in vivo, BALB/c mice. The settings on record: median (range), 5 mice. Here is the method: (§1) BALB/c mice bearing subcutaneously implanted EMT-6 mammary carcinomas implanted on the dorsal thorax were given a total dose of 200-230 milligrams porphyrin compound (VII or XII) per kilogram body weight (32-37 mg B/kg). Mice were given six intraperitoneal injections over a 2-day period with 3 injections per day at 4-hour intervals. At one and two days after the last injection, mice were euthanized, and tumor, blood, brain, and liver were removed for boron analyses by direct current-plasma-atomic-emission spectrometry (DCP-AES). The blood was first analyzed for hematologic parameters that indicate toxicity before it was analyzed for boron.

Data set [2] has as its system EMT-6 mammary carcinomas. The experiment in a line: Biodistribution of porphyrins in mice bearing EMT-6 carcinomas (boron by DCP-AES). The settings on record: n = 5; for Average boron concentration, EMT-6 Tumor: wet tissue. The class given is in vivo, BALB/c mice. The procedure:
(§2) Porphyrin compounds (VII, XII, XXIII) were emulsified in 3% Cremophor EL and 6% propylene glycol in saline.
(§3) To prepare a solution of ˜3.5 mg/mL porphyrin in 3% Cremophor EL (CRM) and 6% propylene glycol (PRG), the porphyrin was dissolved in tetrahydrofuran (THF) (1.5% of the total volume) and then heated to 40° C. for 15 min. CRM (3% of total volume) was then added and the mixture was heated to 60° C. for 2 hours, which removed most of the THF. After cooling to room temperature, PRG (6% of total volume) was added, followed by slow dropwise addition of saline (89.5% of total volume) with rapid stirring. The solution was degassed by stirring under vacuum (˜30 mm Hg) for 30-60 min and then filtered (Millipore, 8 μm).
as §1

A short description of data set [3]: Weight changes and hematologic parameters in mice bearing SCCVII carcinomas. The class given is in vivo, C3H mice. The settings on record: for % Weight change / Granulocytes / Lymphocytes / Platelets: median (range). The procedure:
(§4) C3H mice bearing subcutaneously implanted SCCVII squamous cell carcinomas implanted on the dorsal thorax were given a total dose of 450 milligrams porphyrin compound VII per kilogram body weight (70 mg B/kg) via 6 i.p. injections given over a period of 2 days (3/day over 8 hours). Mice were given porphyrin XXIII at a total dose of 160 mg/kg (36 mg/kg B) via 3 i.p. injections given over a period of 8 hours. At one and two days after the last injection, mice were euthanized, and tumor, blood, brain, and liver were removed for boron analyses. The blood was first analyzed for hematologic parameters that indicate toxicity before it was analyzed for boron.

Data set [4] deals with SCCVII squamous cell carcinomas. The experiment in a line: Biodistribution of porphyrins in mice bearing SCCVII squamous cell carcinomas. The settings on record: for Average boron concentration, SCCVII Tumor: wet tissue. The class given is in vivo, C3H mice. Here is the method:
as §2, §3, §4

For data set [5], the system named is tumors. The settings on record: in vivo; cited from earlier work.
[6] abbreviates: 230 mg/kg i.p., 1 d after last injection.
The mark [7] stands for this setting: 230 mg/kg i.p., 2 d after last injection.
The mark [8] stands for this setting: 230 mg/kg (37 mg B/kg) in 6 i.p. injections over 2 days, 1 d after last injection.
The mark [9] stands for this setting: 230 mg/kg (37 mg B/kg) in 6 i.p. injections over 2 days, 2 d after last injection.
Where [10] appears, read: 450 mg/kg (70 mg B/kg) i.p., 1 d after last injection, 5 mice.
[11] abbreviates: 200 mg/kg i.p., 1 d after last injection.
[12] abbreviates: 200 mg/kg i.p., 2 d after last injection.
Setting [13] is: 450 mg/kg (70 mg B/kg) in 6 i.p. injections over 2 days, 1 d after last injection, 5 mice.
Where [14] appears, read: 200 mg/kg (32 mg B/kg) in 6 i.p. injections over 2 days, 1 d after last injection.
[15] abbreviates: 200 mg/kg (32 mg B/kg) in 6 i.p. injections over 2 days, 2 d after last injection.
Where [16] appears, read: 180 mg/kg (39 mg B/kg) per table title, 160 mg/kg in text, i.p., 1 d after last injection, 4 mice.
Setting [17] is: 180 mg/kg (39 mg B/kg) per table title, 160 mg/kg in text, i.p., 2 d after last injection, 4 mice.
Setting [18] is: 160 mg/kg (36 mg B/kg in title, 160/39 in table) in 3 i.p. injections over 8 hours, 1 d after last injection, 4 mice.
Where [19] appears, read: 160 mg/kg (36 mg B/kg in title, 160/39 in table) in 3 i.p. injections over 8 hours, 2 d after last injection, 4 mice.

These results are taken from patent US20080279781A1, “Glycosylated Carboranylporphyrins and Uses Thereof” (Brookhaven Science Associates, LLC, priority 2007, published 2008).

Consider “Copper (II) meso-5,15-bis[3-(o-carboranylmethoxy)phenyl]-10,20-bis[3-(β-D-galactose)phenyl]porphyrin [Porphyrin XII]”, for which, in data set [1] (setting [6]), the “% Weight change” value is 1.2 (−3.5-4.8) %, the Granulocytes is 61 (38-71) % WBC, the Lymphocytes is 36 (26-59) % WBC and the Platelets is listed as 962 (944-1306) 10^3/mm^3. In data set [1] (setting [7]), the “% Weight change” value is 3.4 (−2.2-4.8) %, the Granulocytes is recorded as 43 (34-76) % WBC, the Lymphocytes is reported as 54 (22-63) % WBC and the Platelets was 797 (736-877) 10^3/mm^3. For the same compound, in data set [2] (setting [8]), the “Average boron concentration, Blood” value came out at 0.4 ± 0.1 μg B/g; the “Average boron concentration, Brain” value came out at 0.0 ± 0.1 μg B/g; the “Average boron concentration, Liver” value was found to be 473 ± 102 μg B/g; the “Average boron concentration, EMT-6 Tumor” value was found to be 16.7 ± 8.3 μg B/g. Besides, in data set [2] (setting [9]), the “Average boron concentration, Blood” value was found to be 0.2 ± 0.1 μg B/g; the “Average boron concentration, Brain” value is recorded as 0.0 ± 0.1 μg B/g; the “Average boron concentration, Liver” value came out at 354 ± 352 μg B/g; the “Average boron concentration, EMT-6 Tumor” value is listed as 12.6 ± 5.2 μg B/g.
As to “copper (II) meso-5,15-bis[3-(o-carboranylmethoxy)phenyl]-10,20-bis[3-(β-D-glucosyl)phenyl]porphyrin [Porphyrin VII]”, in data set [3] (setting [10]), the “% Weight change” value is given as −1.2 (−2.6-1.9) %, the Granulocytes is given as 46 (41-50) % WBC, the Lymphocytes is 50 (46-56) % WBC and the Platelets is recorded as 739 (628-751) 10^3/mm^3. Also, in data set [3] (very high dose of 450 mg/kg), the thrombocytopenia result is listed as “no thrombocytopenia”. Further, in data set [1] (setting [11]), the “% Weight change” value is listed as −0.18 (−5.6-4.7) %, the Granulocytes was 49 (43-61) % WBC, the Lymphocytes is recorded as 47 (37-54) % WBC and the Platelets is 504 (111-783)* 10^3/mm^3. Also, in data set [1] (setting [12]), the “% Weight change” value is given as 3.5 (−1.5-3.9) %, the Granulocytes was 45 (40-54) % WBC, the Lymphocytes is 52 (44-56) % WBC and the Platelets is reported as 935 (840-1039) 10^3/mm^3. In addition, in data set [4] (setting [13]), the “Average boron concentration, Blood” value came out at 1.0 ± 0.1 µg/g; the “Average boron concentration, Brain” value is 0.3 ± 0.1 µg/g; the “Average boron concentration, Liver” value was 787 ± 70 µg/g; the “Average boron concentration, SCCVII Tumor” value came to 29.1 ± 7.9 µg/g. Besides, in data set [2] (setting [14]), the “Average boron concentration, Blood” value is on record as 0.4 ± 0.1 μg B/g; the “Average boron concentration, Brain” value was 0.0 ± 0.0 μg B/g; the “Average boron concentration, Liver” value turned out to be 457 ± 74 μg B/g; the “Average boron concentration, EMT-6 Tumor” value stood at 20.2 ± 6.3 μg B/g. Moreover, in data set [2] (setting [15]), the “Average boron concentration, Blood” value is reported as 0.2 ± 0.0 μg B/g; the “Average boron concentration, Brain” value is given as 0.0 ± 0.0 μg B/g; the “Average boron concentration, Liver” value is listed as 492 ± 83 μg B/g; the “Average boron concentration, EMT-6 Tumor” value is listed as 19.0 ± 5.4 μg B/g.
In the case of `N[C@@H](Cc1ccc(B(O)O)cc1)C(=O)O` [BPA, p-boronophenylalanine], in data set [5], the chemical toxicity result is recorded as “low chemical toxicity”.
Regarding “copper (II) meso-5,15-bis[m-(3,5-di-o-carboranylmethoxybenzyloxy)phenyl]-10,20-bis[3-(β-D-glucosyl)phenyl]porphyrin [Porphyrin XXIII]”, in data set [3] (setting [16]), the “% Weight change” value is reported as 0.5 (−1.9-3.2) %, the Granulocytes is on record as 43 (32-46) % WBC, the Lymphocytes is 53 (48-64) % WBC and the Platelets is given as 775 (618-881) 10^3/mm^3. Besides, in data set [3] (setting [17]), the “% Weight change” value is recorded as 3.2 (0.9-6.3) %, the Granulocytes is listed as 39 (36-43) % WBC, the Lymphocytes is reported as 57 (51-59) % WBC and the Platelets is reported as 655 (610-723) 10^3/mm^3. Further, in data set [3] (moderately high dose of 160 mg/kg), the “platelet count in comparison with the control mice” value is “did not show any decrease in platelet count”. For the same compound, in data set [4] (setting [18]), the “Average boron concentration, Blood” value amounted to 0.6 ± 0.1 µg/g; the “Average boron concentration, Brain” value was 0.1 ± 0.0 µg/g; the “Average boron concentration, Liver” value worked out at 540 ± 32 µg/g; the “Average boron concentration, SCCVII Tumor” value came out at 16.9 ± 2.6 µg/g. For the same compound, in data set [4] (setting [19]), the “Average boron concentration, Blood” value came to 0.3 ± 0 µg/g; the “Average boron concentration, Brain” value amounted to 0.0 ± 0.0 µg/g; the “Average boron concentration, Liver” value was found to be 534 ± 59 µg/g; the “Average boron concentration, SCCVII Tumor” value turned out to be 14.5 ± 2.9 µg/g.
